Experimental data: publication PMC9800617, “Pharmacokinetics/pharmacodynamics of polymyxin B in patients with bloodstream infection caused by carbapenem-resistant Klebsiella pneumoniae” (Frontiers in Pharmacology, 2022)
Read-outs that look alike come from different tables or passages of the source. Bridge positions count the residues as written; N and C are the ends. Square brackets hold non-standard residues; d marks the D form. Peptide text beside a SMILES is read from it. * marks the point of attachment. X1 = CC[C@H](C)CCCCC(=O)*; Dab = NCC[C@H](N)C(=O)O

How the values were obtained:
[1] = tested on: carbapenem-resistant K. pneumoniae (CRKP) bloodstream infections; assay: Microbiological and clinical efficacy in CRKP bloodstream infection; format: in vivo, human; details: for Microbiological efficacy: blood culture; for Clinical efficacy: evaluated when the subject withdrew or completed the study; for 28-day survival: 14 days of treatment
Protocol: This prospective, multi-centered, single-armed and open-label clinical trial was conducted in accordance with Good Clinical Practice, International Conference on Harmonization guidelines, and in compliance with the World Medical Association Declaration of Helsinki and was approved by the Ethics Committee of Sir Run Run Shaw Hospital, College of Medicine, Zhejiang University, Hangzhou, China, and other participating centers ([Williams, 2008]). Written informed consent was obtained from each patient or his/her representative before enrollment. Patients with CRKP-positive blood cultures and with an estimated glomerular filtration rate (eGFR) of 60–120 ml/min were included. The inclusion and exclusion criteria are shown in Supplementary Table S1. This clinical trial was registered at http://www.chictr.org.cn (registration number: ChiCTR 1900021137) and was conducted across 2019 and 2020.
The definition of different population groups for safety and efficacy analysis is shown in Supplementary Table S2. Briefly, safety was evaluated based on adverse events (AEs) in patients who received at least one polymyxin B dose. Adverse events were recorded based on patient self-reporting as well as abnormal laboratory test results including serum chemistry and routine blood and urinary testing. Acute kidney injury (AKI) was graded according to the RIFLE criteria ([Bellomo et al., 2004]). The primary endpoint was culture-confirmed bacterial eradication of CRKP from the blood evaluated by blood cultures taken every 3 days following the first dose of polymyxin B administration. Secondary endpoints were clinical outcome (clinical cure or improvement, Supplementary Table S3) evaluated in patients who received at least 3 days of polymyxin B treatment, and 28-day all-cause mortality evaluated in patients who completed 14 days of polymyxin B treatment.

[2] = Plasma pharmacokinetics of polymyxin B in CRKP BSI patients (LC-MS/MS; non-compartmental and compartmental); format: in vivo, human; details: mean ± SD
Protocol: Polymyxin B Sulphate for Injection (Lot No. A-1411137) containing 72.0% polymyxin B1 and B1-Ile and 12.1% polymyxin B2 was provided by SPH No. 1 Biochemical & Pharmaceutical Co., Ltd. (Shanghai, China). Prior to administration, polymyxin B was dissolved in 50–100 ml normal saline as per the manufacturer’s instructions then administered intravenously at a dose of 1.25 mg/kg every 12 h (2-h infusion) with an initial loading dose of 2.5 mg/kg (3-h infusion). Treatment lasted for 7–14 days as per treatment guidelines ([Rhodes et al., 2017]). Adverse events were closely monitored and recorded for each patient.
Blood samples (4 mL) for pharmacokinetic analysis were collected in tubes with EDTA-K2 as the anticoagulant immediately before and after administration of the polymyxin B loading dose (the first dose) and immediately before administration of the second dose. Subsequent blood samples were collected during the second visit (5th, 6th or 7th dosing) consisting of a sample immediately prior to the infusion and at .5, 1, 2, 3, 4, 5, 6, 7, 8, 10, and 12 h following the commencement of the infusion. If possible, a final blood sample was collected 24 h after the commencement of the last infusion. All blood samples were centrifuged (4°C, 2,000 g) and plasma collected and stored at −80°C until analysis.
The concentrations of polymyxin B1 (including B1-Ile) and polymyxin B2 were determined using a validated liquid chromatography-tandem mass spectrometry (LC-MS/MS) method ([Liu et al., 2020]). […] The calibration range was .050–5.00 mg/L for polymyxin B1 and .011–.549 mg/L for polymyxin B2. The concentration of polymyxin B was calculated by the sum of concentrations of polymyxin B1 and B2 using molar terms and their molecular weights (polymyxin B1 is 1203.48 g/mol, polymyxin B2 is 1189.45 g/mol).
The PK parameters of polymyxin B were calculated using Phoenix WinNonlin 8.0 (Certara^TM, USA) with non-compartmental and compartmental methods. PPK analysis was conducted using NONMEM 7.4 (Icon Development Solutions, Ellicott City, MD) with G77 FORTRAN complier and FOCEI algorithm. Results from BSI patients in the present study and healthy subjects in a previous study were combined ([Liu et al., 2021]). One- and two-compartment models were tested during development of the base model. Models were developed and evaluated based on an objective function value and goodness-of-fit plots. The covariates were selected using a forward inclusion and backward elimination strategy. The screened covariates were sex, age, body weight, height, body mass index (BMI), creatinine clearance (CLcr), albumin, hemoglobin, total protein, total bilirubin, serum alanine aminotransferase (ALT), serum aspartate aminotransferase (AST), serum creatinine, Sequential Organ Failure Assessment (SOFA) score, and disease state (BSI patients were defined as 1 and healthy subjects were defined as 2). Covariates were included in the model based on the criteria of OFV requiring a decrease of 3.84 (p < .05) in the forward inclusion and an increase of greater of 10.83 (p < .001) in the backward elimination. Bootstrap sampling and visual predictive checks (VPCs) were utilized to validate the robustness of the final model.

[3] = human, steady state, 1.25 mg/kg/12 h (2-h iv infusion), plasma, LC-MS/MS, non-compartmental

## CC[C@H](C)CCCCC(=O)N[C@@H](CCN)C(=O)N[C@H](C(=O)N[C@@H](CCN)C(=O)N[C@H]1CCNC(=O)[C@H]([C@@H](C)O)NC(=O)[C@H](CCN)NC(=O)[C@H](CCN)NC(=O)[C@H](CC(C)C)NC(=O)[C@@H](Cc2ccccc2)NC(=O)[C@H](CCN)NC1=O)[C@@H](C)O [polymyxin B] (X1-[Dab]T[Dab][Dab][Dab][dF]L[Dab][Dab]T; lactam 4-C)
[1]; 4 patients who completed the 14-day treatment protocol
  patients alive 28 days after the commencement of therapy: all 4
[1]; 6/8 patients
  clinical cure or improvement: 75%
[1]; all 8 patients evaluated for microbiological efficacy
  time to negative blood cultures after commencing therapy: ≤ 3 days
[1]; patient 1
  Microbiological efficacy: Eradication
  Clinical efficacy: Not improved
[1]; patient 2
  Microbiological efficacy: Eradication
  Clinical efficacy: Improved
[1]; patient 3
  28-day survival: Yes
  Microbiological efficacy: Eradication
  Clinical efficacy: Cure
[1]; patient 5
  Microbiological efficacy: Eradication
  Clinical efficacy: Improved
[1]; patient 6
  28-day survival: Yes
  Microbiological efficacy: Eradication
  Clinical efficacy: Cure
[1]; patient 7
  28-day survival: Yes
  Microbiological efficacy: Eradication
  Clinical efficacy: Cure
[1]; patient 8
  Microbiological efficacy: Eradication
  Clinical efficacy: Improved
[1]; patient 9
  28-day survival: Yes
  Microbiological efficacy: Eradication
  Clinical efficacy: Failure
[1]; patients evaluated for efficacy (n = 8)
  clinical cure or improvement: 6 of 8
[2]; human, 2.5 mg/kg loading dose, 3-h iv infusion, plasma, LC-MS/MS, read-out: Cmax following the loading dose
  Cmax: 5530 ± 1800 ng/mL
[2]; human, 2.5 mg/kg loading dose, 3-h iv infusion, plasma, LC-MS/MS, read-out: Cmin (12 h) following the loading dose
  level at 12 h: 1620 ± 410 ng/mL
[2]; human, plasma, iv, two-compartmental analysis, read-out: CL, clearance from the central compartment (converted)
  clearance: 0.433 mL/min/kg
[2]; [3]
  Vd: 0.49 ± 0.142 L/kg
  half-life: 12.5 ± 3.11 h
[2]; human, steady state, 1.25 mg/kg/12 h (2-h iv infusion), plasma, LC-MS/MS, non-compartmental, read-out: AUC12h
  AUC(0-t): 39800 ± 12500 ng·h/mL
[2]; human, steady state, 1.25 mg/kg/12 h (2-h iv infusion), plasma, LC-MS/MS, non-compartmental, read-out: CL (converted)
  clearance: 0.467 mL/min/kg
[2]; human, steady state, 1.25 mg/kg/12 h (2-h iv infusion), plasma, LC-MS/MS, non-compartmental, read-out: Cmax
  Cmax: 5420 ± 1690 ng/mL
[2]; steady state, 1.25 mg/kg/12 h (2-h iv infusion), plasma, LC-MS/MS, non-compartmental
  Cavg (Css,avg): 3350 ± 1060 ng/mL
[2]; two-compartmental analysis
  K10, elimination rate constant: 0.165 ± 0.065 h⁻¹
  K12, rate constant central to peripheral compartment: 0.702 ± 0.395 h⁻¹
  K21, rate constant peripheral to central compartment: 0.214 ± 0.137 h⁻¹
  V1, central volume of distribution: 0.163 ± 0.036 L/kg
  V2, peripheral volume of distribution: 0.565 ± 0.243 L/kg
